Measured values taken from PMC11233931, “Remodeling tumor‐associated macrophage for anti‐cancer effects by rational design of irreversible inhibition of mitogen‐activated protein kinase‐activated protein kinase 2” (MedComm, 2024).
Like-named read-outs stand apart in the source and are kept apart here.

Tests used:
Test in all cases: Eurofins kinase selectivity profile against 380 other human recombinant kinases (Table S2)
Type in all cases: biochemical
[1] = biological target: T1, 380 human recombinant protein kinases (Homo sapiens, UniProt Q13315); settings: ATM(h), read-out: Inhibition rate (%)
T1 construct: purchased Eurofins (Celle Lévescault)
T1 sequence (Q13315 whole entry): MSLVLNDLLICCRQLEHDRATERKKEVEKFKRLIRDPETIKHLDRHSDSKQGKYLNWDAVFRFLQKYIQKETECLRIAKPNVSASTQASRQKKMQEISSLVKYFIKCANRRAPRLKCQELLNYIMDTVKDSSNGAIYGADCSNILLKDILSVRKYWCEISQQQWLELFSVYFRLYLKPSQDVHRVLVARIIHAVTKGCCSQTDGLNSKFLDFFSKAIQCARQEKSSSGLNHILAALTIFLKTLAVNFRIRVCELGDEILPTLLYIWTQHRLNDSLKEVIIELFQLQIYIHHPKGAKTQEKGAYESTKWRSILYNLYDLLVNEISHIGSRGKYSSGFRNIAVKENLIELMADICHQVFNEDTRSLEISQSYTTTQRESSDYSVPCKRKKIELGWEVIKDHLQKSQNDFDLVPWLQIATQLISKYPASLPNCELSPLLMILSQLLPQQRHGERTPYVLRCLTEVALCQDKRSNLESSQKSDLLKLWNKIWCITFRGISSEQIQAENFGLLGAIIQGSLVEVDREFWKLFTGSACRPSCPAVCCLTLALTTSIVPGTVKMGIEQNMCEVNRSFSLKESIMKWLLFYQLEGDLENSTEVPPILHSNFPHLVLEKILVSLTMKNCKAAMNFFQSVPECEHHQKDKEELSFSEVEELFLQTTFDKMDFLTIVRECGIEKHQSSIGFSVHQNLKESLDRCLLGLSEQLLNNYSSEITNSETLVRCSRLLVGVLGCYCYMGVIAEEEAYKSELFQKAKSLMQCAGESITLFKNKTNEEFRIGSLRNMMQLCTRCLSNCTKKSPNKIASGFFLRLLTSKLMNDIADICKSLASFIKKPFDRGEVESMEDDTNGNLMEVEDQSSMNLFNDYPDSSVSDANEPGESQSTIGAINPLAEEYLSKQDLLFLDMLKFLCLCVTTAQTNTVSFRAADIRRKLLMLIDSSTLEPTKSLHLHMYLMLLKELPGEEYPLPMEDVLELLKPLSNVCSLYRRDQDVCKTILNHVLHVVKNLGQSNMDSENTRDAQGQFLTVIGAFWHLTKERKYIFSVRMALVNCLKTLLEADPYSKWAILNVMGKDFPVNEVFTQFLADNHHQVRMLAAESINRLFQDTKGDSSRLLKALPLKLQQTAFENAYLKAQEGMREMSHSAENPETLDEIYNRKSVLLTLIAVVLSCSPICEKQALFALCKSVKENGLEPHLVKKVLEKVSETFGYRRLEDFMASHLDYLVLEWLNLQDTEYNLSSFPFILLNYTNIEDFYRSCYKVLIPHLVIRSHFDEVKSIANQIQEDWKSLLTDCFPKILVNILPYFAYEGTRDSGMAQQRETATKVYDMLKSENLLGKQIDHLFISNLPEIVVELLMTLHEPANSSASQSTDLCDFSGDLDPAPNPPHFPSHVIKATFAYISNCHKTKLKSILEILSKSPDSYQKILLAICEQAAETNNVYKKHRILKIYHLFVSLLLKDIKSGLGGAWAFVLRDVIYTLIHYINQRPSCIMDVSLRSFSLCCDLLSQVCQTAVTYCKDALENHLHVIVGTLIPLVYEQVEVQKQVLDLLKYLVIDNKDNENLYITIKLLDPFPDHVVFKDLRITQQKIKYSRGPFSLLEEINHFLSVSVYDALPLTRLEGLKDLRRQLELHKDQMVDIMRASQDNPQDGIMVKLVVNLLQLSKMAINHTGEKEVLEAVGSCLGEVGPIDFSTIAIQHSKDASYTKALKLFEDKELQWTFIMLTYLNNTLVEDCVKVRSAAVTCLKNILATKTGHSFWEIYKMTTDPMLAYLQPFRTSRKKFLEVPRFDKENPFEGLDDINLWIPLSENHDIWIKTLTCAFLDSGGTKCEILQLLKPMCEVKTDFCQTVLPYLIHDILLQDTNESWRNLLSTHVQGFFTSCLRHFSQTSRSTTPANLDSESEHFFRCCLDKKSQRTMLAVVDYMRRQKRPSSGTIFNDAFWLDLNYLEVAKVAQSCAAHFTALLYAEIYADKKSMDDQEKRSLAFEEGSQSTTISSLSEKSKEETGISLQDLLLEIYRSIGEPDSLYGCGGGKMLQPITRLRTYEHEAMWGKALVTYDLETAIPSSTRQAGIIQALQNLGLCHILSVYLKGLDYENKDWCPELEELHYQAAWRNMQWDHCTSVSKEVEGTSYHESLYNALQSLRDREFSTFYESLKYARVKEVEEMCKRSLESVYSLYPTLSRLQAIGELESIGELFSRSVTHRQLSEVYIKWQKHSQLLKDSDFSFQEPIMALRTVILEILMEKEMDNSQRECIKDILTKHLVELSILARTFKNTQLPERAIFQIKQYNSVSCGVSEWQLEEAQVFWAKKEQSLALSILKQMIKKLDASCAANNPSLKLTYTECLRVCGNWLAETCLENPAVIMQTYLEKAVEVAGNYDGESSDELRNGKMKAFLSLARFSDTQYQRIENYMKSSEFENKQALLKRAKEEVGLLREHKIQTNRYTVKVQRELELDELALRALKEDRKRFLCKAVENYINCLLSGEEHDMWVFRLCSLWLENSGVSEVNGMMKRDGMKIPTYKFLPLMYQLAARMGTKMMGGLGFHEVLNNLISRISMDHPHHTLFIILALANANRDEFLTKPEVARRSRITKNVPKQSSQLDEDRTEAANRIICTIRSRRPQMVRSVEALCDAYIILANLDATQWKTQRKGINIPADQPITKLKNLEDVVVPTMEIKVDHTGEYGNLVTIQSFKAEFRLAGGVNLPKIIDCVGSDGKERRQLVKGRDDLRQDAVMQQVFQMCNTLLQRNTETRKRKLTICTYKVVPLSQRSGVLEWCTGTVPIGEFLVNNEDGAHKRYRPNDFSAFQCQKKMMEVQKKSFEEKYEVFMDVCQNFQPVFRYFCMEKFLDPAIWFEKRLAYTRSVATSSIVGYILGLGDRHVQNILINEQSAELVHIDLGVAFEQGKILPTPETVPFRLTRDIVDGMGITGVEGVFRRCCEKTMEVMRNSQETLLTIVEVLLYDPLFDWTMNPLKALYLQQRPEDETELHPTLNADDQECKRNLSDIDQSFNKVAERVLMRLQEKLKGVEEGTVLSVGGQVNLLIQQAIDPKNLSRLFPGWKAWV
Outline: (§1)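 To gauge specificity for MK2, the compound is profiled externally at various concentrations on recombinant human kinases, 380 in total.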

[2] = biological target: T2, 380 human recombinant protein kinases (Homo sapiens, UniProt Q99755); settings: PIP5K1α(h), read-out: Inhibition rate (%)
T2 construct: purchased Eurofins (Celle Lévescault)
T2 sequence (Q99755 whole entry): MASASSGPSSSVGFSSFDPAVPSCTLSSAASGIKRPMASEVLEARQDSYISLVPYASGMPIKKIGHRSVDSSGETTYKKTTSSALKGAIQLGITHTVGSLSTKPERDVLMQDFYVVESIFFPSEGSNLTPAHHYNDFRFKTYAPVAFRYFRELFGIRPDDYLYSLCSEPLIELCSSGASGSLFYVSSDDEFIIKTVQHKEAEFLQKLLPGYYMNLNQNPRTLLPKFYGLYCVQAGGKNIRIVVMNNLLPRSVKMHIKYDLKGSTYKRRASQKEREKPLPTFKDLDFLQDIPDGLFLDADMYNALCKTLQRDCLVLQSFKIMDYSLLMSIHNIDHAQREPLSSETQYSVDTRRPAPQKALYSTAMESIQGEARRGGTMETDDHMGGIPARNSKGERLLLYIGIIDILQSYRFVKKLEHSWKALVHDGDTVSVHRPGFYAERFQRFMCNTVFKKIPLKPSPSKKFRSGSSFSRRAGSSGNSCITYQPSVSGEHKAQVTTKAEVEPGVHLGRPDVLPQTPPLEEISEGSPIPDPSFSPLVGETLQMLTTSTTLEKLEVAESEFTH
Outline: as §1

[3] = biological target: T3, 380 human recombinant protein kinases (Homo sapiens, UniProt Q9UL54); settings: TAO2(h), read-out: Inhibition rate (%)
T3 construct: purchased Eurofins (Celle Lévescault)
T3 sequence (Q9UL54 1-1235): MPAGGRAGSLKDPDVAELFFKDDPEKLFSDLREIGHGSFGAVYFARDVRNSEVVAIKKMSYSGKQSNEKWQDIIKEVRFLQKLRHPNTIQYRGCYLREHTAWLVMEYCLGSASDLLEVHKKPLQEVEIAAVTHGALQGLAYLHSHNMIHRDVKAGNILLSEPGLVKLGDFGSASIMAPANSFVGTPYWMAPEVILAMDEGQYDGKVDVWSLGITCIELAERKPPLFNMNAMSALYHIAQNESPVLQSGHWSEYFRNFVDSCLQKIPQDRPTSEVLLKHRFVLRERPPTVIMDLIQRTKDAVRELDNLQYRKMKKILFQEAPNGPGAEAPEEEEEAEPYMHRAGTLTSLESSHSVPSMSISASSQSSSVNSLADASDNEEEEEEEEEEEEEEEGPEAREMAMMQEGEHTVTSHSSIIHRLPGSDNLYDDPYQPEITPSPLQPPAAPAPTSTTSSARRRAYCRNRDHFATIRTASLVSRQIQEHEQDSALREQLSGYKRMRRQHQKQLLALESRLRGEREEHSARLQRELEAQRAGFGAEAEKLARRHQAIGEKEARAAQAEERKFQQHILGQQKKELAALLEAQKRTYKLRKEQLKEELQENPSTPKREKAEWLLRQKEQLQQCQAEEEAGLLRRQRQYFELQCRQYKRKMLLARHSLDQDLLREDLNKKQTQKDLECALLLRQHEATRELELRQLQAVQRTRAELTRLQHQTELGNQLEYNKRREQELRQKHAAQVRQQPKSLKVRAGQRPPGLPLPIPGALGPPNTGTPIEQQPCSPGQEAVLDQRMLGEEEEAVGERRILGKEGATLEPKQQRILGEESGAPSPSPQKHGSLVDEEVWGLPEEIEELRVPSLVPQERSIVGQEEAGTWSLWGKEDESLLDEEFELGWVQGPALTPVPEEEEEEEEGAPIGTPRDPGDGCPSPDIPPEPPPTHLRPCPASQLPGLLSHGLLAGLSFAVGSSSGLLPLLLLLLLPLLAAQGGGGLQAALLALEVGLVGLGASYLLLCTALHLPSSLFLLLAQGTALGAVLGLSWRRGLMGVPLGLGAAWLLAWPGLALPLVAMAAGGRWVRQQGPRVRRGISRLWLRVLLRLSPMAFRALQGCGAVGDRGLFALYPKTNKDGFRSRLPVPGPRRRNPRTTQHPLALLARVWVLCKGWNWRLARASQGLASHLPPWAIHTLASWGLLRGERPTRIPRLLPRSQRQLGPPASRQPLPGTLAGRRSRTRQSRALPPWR
Outline: as §1

[4] = biological target: T4, 380 human recombinant protein kinases (Homo sapiens, UniProt P42345); settings: read-out: Inhibition rate; for inhibition at 0.01 µM: 10 nM; for inhibition at 0.1 µM: 100 nM; for inhibition at 1 µM: 1000 nM
T4 construct: purchased Eurofins (Celle Lévescault)
Outline: as §1

[5] = biological target: T5, 380 human recombinant protein kinases (Homo sapiens, UniProt Q8IWQ3); settings: BrSK2(h), read-out: Inhibition rate
T5 construct: purchased Eurofins (Celle Lévescault)
T5 sequence (Q8IWQ3 1-736): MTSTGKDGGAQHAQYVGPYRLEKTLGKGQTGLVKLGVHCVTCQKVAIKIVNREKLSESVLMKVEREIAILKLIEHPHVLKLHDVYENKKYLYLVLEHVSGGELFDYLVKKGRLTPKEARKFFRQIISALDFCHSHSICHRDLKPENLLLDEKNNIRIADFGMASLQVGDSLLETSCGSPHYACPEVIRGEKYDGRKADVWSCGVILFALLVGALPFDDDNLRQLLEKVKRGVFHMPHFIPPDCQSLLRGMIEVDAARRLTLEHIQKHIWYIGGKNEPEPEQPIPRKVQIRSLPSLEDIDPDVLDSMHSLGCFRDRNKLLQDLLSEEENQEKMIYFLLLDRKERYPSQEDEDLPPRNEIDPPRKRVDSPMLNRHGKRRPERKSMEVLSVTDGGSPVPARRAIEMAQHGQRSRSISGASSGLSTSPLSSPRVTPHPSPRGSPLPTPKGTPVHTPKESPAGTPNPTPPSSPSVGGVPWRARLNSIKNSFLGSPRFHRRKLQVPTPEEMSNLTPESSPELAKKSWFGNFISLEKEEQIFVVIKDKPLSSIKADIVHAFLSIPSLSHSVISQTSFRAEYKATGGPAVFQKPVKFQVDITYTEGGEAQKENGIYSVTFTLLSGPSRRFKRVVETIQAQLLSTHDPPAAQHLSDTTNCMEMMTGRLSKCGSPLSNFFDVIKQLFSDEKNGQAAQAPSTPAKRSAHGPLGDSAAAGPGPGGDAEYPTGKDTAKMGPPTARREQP
Outline: as §1

Question: What does the source list for `C=CC(=O)Nc1cc(-c2cc(-c3cc4c([nH]3)CCNC4=O)ccn2)ccc1OC(F)(F)F` [compound 11]?
Answer: inhibition at 0.01 µM ([1]; 10 nM): -3%; inhibition at 0.1 µM ([1]; 100 nM): -6%; inhibition at 1 µM ([1]; 1000 nM): -9%; inhibition at 0.01 µM ([2]; 10 nM): -4%; inhibition at 0.1 µM ([2]; 100 nM): -3%; inhibition at 1 µM ([2]; 1000 nM): -2%; inhibition at 0.01 µM ([3]; 10 nM): -7%; inhibition at 0.1 µM ([3]; 100 nM): 1%; inhibition at 1 µM ([3]; 1000 nM): 0%; inhibition at 0.01 µM ([4]; mTOR(h)): -1%; inhibition at 0.1 µM ([4]; mTOR(h)): 2%; inhibition at 1 µM ([4]; mTOR(h)): 7%; inhibition at 0.01 µM ([4]; mTOR/FKBP12(h)): 8%; inhibition at 0.1 µM ([4]; mTOR/FKBP12(h)): 12%; inhibition at 1 µM ([4]; mTOR/FKBP12(h)): 6%; inhibition at 0.01 µM ([5]; 10 nM): -2%; inhibition at 0.1 µM ([5]; 100 nM): 6%; inhibition at 1 µM ([5]; 1000 nM): 26%
